Data as given in patent US8481586B2, “Pyrrolo[2,3-a] carbazoles and use thereof as PIM kinase inhibitors” (Centre National de la Recherche Scientifique, priority 2008, dated 2013).

What was measured:
Test in all cases: kinase panel residual activity test
Format in all cases: biochemical
Details in all cases: compound at 10 μM
CAMKKa = CAMKKa (Homo sapiens (Human), UniProt Q8N5S9)
Description: (§1) MKK1, ERK 1, ERK 2, JNK1, JNK2, JNK3, p38a MAPK, p38b MAPK, p38g MAPK, p38s MAPK, ERK8, RSK1, RSK2, PDK1, PKBa, PKBb, SGK1, S6K1, PKA, ROCK2, PRK2, PKCa, PKC zeta, PKD1, MSK1, MNK1, MNK2, MAPKAP-K2, MAPKAP-K3, PRAK, CAMKKa, CAMKKb, CAMK1, SmMLCK, PHK, CHK1, CHK2, GSK3b, CDK2/cyclin A, PLK1, PLK1 (Okadaic acid), Aurora B, Aurora C, AMPK, MARK3, BRSK2, MELK, CK1, CK2, NEK2a, NEK6, NEK7, IKKb, PIM-1, PIM-2, PIM-3, SRPK1, MST2, EF2K, HIPK2, HIPK3, PAK-4, PAK5, PAK6, Src, Lck, CSK.

ERK8 = ERK8 (Homo sapiens (Human), UniProt Q8TD08)
Description: as §1

PAK5 = PAK5 (Homo sapiens (Human), UniProt Q9P286)
Description: as §1

Src = Src (Homo sapiens (Human), UniProt P12931)
Description: as §1

PKBb = PKBb (Homo sapiens (Human), UniProt P31751)
PKBb, sequence (P31751 whole entry): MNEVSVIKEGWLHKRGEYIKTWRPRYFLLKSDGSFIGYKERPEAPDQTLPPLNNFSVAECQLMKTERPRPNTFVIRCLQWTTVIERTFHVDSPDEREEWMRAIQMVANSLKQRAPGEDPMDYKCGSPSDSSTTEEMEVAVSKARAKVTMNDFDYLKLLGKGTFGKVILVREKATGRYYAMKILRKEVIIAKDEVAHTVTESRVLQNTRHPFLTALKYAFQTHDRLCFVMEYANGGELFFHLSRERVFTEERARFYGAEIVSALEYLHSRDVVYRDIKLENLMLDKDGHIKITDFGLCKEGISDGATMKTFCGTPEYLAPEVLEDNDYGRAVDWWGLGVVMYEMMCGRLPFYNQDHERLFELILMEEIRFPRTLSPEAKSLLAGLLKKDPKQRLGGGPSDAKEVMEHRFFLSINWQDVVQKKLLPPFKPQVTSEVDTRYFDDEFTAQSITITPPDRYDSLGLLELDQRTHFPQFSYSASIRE
Description: as §1

MAPKAP-K3 = MAPKAP-K3 (Homo sapiens (Human), UniProt Q16644)
MAPKAP-K3, sequence (Q16644 whole entry, species assumed): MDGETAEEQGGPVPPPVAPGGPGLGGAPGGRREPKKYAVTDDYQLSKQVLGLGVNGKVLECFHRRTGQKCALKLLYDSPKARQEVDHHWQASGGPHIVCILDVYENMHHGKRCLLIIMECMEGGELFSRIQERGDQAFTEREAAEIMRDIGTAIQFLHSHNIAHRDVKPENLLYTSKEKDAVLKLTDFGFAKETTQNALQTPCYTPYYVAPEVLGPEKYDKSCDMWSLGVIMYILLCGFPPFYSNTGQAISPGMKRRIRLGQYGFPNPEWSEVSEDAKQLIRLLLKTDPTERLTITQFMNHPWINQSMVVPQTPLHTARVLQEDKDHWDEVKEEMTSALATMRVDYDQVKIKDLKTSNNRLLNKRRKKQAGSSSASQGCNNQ
Description: as §1

SRPK1 = SRPK1 (Homo sapiens (Human), UniProt Q96SB4)
Description: as §1

SmMLCK = tested on: SmMLCK
Description: as §1

Aurora C = Aurora C (Homo sapiens (Human), UniProt Q9UQB9)
Aurora C, sequence (Q9UQB9 whole entry): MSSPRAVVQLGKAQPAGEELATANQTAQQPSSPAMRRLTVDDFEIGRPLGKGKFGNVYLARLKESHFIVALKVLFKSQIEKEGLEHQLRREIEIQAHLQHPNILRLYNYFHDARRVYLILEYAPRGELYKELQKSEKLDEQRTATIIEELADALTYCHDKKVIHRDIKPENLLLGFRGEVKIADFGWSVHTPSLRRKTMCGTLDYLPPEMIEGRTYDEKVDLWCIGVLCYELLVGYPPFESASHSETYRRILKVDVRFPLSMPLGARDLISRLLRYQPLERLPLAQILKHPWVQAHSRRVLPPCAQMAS
Description: as §1

HIPK2 = HIPK2 (Homo sapiens (Human), UniProt Q9H2X6)
Description: as §1

HIPK3 = HIPK3 (Homo sapiens (Human), UniProt Q9H422)
Description: as §1

MNK2 = MNK2 (Homo sapiens (Human), UniProt Q9HBH9)
MNK2, sequence (Q9HBH9 whole entry, species assumed): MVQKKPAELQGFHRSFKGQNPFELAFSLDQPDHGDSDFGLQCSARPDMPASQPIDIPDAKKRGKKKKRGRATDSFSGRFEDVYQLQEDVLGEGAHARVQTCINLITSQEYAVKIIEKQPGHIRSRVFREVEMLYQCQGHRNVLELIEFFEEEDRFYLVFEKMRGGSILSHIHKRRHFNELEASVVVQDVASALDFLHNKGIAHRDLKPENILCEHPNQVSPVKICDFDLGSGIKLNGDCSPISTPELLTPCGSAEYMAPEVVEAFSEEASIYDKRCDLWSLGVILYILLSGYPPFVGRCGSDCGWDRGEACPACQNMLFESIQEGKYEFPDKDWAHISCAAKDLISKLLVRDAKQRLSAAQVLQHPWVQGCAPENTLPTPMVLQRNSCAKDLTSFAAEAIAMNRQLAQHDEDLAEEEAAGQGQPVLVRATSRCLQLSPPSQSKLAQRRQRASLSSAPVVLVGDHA
Description: as §1

PKC zeta = PKC zeta (Homo sapiens (Human), UniProt Q05513)
Description: as §1

IKKb = IKKb (Homo sapiens (Human), UniProt O14920)
Description: as §1

JNK3 = JNK3 (Homo sapiens (Human), UniProt P53779)
JNK3, sequence (P53779 whole entry, species assumed): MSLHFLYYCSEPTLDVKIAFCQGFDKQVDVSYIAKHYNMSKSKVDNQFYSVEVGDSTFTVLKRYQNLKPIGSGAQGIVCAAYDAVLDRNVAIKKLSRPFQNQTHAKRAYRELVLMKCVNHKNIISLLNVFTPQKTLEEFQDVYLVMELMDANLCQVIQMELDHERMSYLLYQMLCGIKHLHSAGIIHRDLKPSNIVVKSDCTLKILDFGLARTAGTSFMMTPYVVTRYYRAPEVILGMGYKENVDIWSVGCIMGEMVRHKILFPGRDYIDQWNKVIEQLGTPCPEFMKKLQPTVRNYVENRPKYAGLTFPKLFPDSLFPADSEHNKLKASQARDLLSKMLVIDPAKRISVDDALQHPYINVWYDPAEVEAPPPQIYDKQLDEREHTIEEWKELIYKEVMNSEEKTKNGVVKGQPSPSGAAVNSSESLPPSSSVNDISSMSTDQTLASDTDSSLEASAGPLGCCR
Description: as §1

PKBa = PKBa (Homo sapiens (Human), UniProt P31749)
Description: as §1

JNK2 = JNK2 (Homo sapiens (Human), UniProt P45984)
Description: as §1

NEK2a = NEK2a (Homo sapiens (Human), UniProt P51955)
NEK2a, sequence (P51955 whole entry, species assumed): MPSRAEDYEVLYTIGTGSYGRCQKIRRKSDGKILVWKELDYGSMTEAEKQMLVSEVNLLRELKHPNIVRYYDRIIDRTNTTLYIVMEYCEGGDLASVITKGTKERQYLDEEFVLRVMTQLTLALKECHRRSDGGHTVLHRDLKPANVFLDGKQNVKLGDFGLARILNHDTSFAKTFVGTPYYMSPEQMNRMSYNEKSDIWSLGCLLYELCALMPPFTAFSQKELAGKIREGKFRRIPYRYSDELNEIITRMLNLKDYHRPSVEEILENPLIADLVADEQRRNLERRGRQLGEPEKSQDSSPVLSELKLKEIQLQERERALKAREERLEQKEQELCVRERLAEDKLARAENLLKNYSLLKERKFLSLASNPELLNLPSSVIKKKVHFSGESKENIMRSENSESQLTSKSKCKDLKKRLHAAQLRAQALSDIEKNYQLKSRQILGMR
Description: as §1

CDK2/cyclin A = CDK2/cyclin A (Homo sapiens (Human), UniProt P24941)
Description: as §1

MELK = MELK (Homo sapiens (Human), UniProt Q14680)
Description: as §1

MSK1 = MSK1 (Homo sapiens (Human), UniProt O75582)
MSK1, sequence (O75582 whole entry, species assumed): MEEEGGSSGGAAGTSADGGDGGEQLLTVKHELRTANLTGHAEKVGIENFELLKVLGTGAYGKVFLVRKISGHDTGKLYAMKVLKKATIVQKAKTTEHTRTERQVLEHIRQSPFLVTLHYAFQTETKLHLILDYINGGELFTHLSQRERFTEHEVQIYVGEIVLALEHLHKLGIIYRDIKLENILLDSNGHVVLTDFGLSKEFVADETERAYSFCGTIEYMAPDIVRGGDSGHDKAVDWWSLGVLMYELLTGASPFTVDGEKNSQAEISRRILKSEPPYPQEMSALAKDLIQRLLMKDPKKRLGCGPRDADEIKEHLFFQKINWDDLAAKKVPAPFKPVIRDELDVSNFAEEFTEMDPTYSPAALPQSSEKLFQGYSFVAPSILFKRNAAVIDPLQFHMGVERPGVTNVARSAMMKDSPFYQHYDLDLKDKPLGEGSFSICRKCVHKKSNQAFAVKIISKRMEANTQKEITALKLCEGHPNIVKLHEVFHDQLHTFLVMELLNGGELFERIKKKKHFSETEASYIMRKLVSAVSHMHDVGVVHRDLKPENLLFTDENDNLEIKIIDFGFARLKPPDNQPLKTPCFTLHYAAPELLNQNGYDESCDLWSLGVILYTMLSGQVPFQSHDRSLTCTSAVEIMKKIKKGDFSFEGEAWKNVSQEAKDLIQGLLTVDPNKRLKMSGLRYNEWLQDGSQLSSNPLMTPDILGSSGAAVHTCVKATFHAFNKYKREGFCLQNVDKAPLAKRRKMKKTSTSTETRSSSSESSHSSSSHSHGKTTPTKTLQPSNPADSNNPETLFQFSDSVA
Description: as §1

PDK1 = PDK1 (Homo sapiens (Human), UniProt O15530)
PDK1, sequence (O15530 whole entry): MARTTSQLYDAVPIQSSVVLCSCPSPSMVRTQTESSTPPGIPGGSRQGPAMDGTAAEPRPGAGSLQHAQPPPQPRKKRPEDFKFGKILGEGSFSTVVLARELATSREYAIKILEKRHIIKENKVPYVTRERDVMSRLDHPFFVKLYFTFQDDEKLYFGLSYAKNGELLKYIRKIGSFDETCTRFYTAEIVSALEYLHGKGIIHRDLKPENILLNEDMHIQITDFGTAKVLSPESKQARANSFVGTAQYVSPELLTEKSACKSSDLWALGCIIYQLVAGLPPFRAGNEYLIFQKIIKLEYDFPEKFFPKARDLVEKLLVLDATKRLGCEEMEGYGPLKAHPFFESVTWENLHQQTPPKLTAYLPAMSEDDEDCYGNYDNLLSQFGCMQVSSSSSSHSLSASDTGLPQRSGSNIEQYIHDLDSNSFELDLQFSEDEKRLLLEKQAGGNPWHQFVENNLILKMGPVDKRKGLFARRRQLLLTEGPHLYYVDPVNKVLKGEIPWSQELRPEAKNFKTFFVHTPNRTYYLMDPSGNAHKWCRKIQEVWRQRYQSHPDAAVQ
Description: as §1

NEK6 = NEK6 (Homo sapiens (Human), UniProt Q9HC98)
Description: as §1

CHK1 = CHK1 (Homo sapiens (Human), UniProt O14757)
Description: as §1

PLK1 (Okadaic acid) = PLK1 (Okadaic acid) (Homo sapiens (Human), UniProt P53350)
Description: as §1

MST2 = MST2 (Homo sapiens (Human), UniProt Q13188)
MST2, sequence (Q13188 whole entry, species assumed): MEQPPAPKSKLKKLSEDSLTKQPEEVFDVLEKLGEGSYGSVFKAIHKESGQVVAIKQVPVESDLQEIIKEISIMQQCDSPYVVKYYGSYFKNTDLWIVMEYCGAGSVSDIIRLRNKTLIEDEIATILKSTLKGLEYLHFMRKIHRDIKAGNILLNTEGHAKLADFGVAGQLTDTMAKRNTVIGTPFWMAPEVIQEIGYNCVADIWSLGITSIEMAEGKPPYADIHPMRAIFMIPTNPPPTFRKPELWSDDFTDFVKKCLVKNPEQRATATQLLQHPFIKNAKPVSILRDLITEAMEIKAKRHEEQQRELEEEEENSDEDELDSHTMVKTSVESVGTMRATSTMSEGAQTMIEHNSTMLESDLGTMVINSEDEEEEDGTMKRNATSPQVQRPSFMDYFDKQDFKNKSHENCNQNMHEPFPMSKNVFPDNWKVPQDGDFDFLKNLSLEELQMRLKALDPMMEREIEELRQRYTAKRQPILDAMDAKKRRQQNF
Description: as §1

ERK1 = ERK1 (Homo sapiens (Human), UniProt P27361)
Description: as §1

PKCa = PKCa (Homo sapiens (Human), UniProt P17252)
Description: as §1

CHK2 = CHK2 (Homo sapiens (Human), UniProt O96017)
Description: as §1

CSK = CSK (Homo sapiens (Human), UniProt P41240)
Description: as §1

PLK1 = PLK1 (Homo sapiens (Human), UniProt P53350)
Description: as §1

p38b MAPK = p38b MAPK (Homo sapiens (Human), UniProt Q15759)
Description: as §1

PHK = tested on: PHK
Description: as §1

MAPKAP-K2 = MAPKAP-K2 (Homo sapiens (Human), UniProt P49137)
Description: as §1

CAMKKb = CAMKKb (Homo sapiens (Human), UniProt Q96RR4)
Description: as §1

MNK1 = MNK1 (Homo sapiens (Human), UniProt Q9BUB5)
MNK1, sequence (Q9BUB5 whole entry, species assumed): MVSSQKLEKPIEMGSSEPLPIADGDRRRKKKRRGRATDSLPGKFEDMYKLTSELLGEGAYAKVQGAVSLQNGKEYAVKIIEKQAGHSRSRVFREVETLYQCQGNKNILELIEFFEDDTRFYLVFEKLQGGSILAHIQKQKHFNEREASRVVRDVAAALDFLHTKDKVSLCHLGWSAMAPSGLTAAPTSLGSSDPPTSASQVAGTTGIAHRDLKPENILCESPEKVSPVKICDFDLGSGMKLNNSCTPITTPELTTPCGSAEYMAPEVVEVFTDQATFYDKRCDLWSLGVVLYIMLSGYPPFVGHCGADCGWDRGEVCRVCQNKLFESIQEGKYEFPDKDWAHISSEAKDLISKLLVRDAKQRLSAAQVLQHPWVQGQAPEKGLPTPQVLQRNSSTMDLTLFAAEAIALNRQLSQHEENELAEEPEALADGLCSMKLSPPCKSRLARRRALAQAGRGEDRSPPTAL
Description: as §1

MARK3 = MARK3 (Homo sapiens (Human), UniProt P27448)
Description: as §1

PAK4 = PAK4 (Homo sapiens (Human), UniProt O96013)
Description: as §1

| Structure (SMILES) | remaining activity at 10 µM (CAMKKa) [%] | remaining activity at 10 µM (ERK8) [%] | remaining activity at 10 µM (PAK5) [%] | remaining activity at 10 µM (Src) [%] | remaining activity at 10 µM (PKBb) [%] | remaining activity at 10 µM (MAPKAP-K3) [%] | remaining activity at 10 µM (SRPK1) [%] | % residual activity SmMLCK (SmMLCK) [%] | remaining activity at 10 µM (Aurora C) [%] | remaining activity at 10 µM (HIPK2) [%] | remaining activity at 10 µM (HIPK3) [%] | remaining activity at 10 µM (MNK2) [%] | remaining activity at 10 µM (PKC zeta) [%] | remaining activity at 10 µM (IKKb) [%] | remaining activity at 10 µM (JNK3) [%] | remaining activity at 10 µM (PKBa) [%] | remaining activity at 10 µM (JNK2) [%] | remaining activity at 10 µM (NEK2a) [%] | remaining activity at 10 µM (CDK2/cyclin A) [%] | remaining activity at 10 µM (MELK) [%] | other results |
| --- | --- | --- | --- | --- | --- | --- | --- | --- | --- | --- | --- | --- | --- | --- | --- | --- | --- | --- | --- | --- | --- |
| c1ccc2c(c1)[nH]c1c2ccc2cc[nH]c21 [Example 2, 1,10-dihydropyrrolo[2,3-a]carbazole] | 76 | 55 | 82 | 98 | 107 | 89 | 90 | 86 | 85 | 59 | 97 | 95 | 91 | 106 | 108 | 120 | 118 | 104 | 97 | 93 | remaining activity at 10 µM (MSK1): 90%; remaining activity at 10 µM (PDK1): 86%; remaining activity at 10 µM (NEK6): 90%; remaining activity at 10 µM (CHK1): 123%; remaining activity at 10 µM (PLK1 (Okadaic acid)): 103%; remaining activity at 10 µM (MST2): 82%; remaining activity at 10 µM (ERK1): 108%; remaining activity at 10 µM (PKCa): 111%; remaining activity at 10 µM (CHK2): 58%; remaining activity at 10 µM (CSK): 98%; remaining activity at 10 µM (PLK1): 111%; remaining activity at 10 µM (p38b MAPK): 100%; % residual activity PHK (PHK): 90%; remaining activity at 10 µM (MAPKAP-K2): 118%; remaining activity at 10 µM (CAMKKb): 93%; remaining activity at 10 µM (MNK1): 69%; remaining activity at 10 µM (MARK3): 116%; remaining activity at 10 µM (PAK4): 84% |
| O=Cc1c[nH]c2c1ccc1c3ccccc3[nH]c12 [Example 3, 1,10-dihydropyrrolo[2,3-a]carbazole-3-carbaldehyde] | 42 | 20 | 87 | 85 | 98 | 69 | 84 | 60 | 79 | 25 | 64 | 55 | 83 | 71 | 113 | 96 | 128 | 88 | 74 | 61 | remaining activity at 10 µM (MSK1): 71%; remaining activity at 10 µM (PDK1): 76%; remaining activity at 10 µM (NEK6): 78%; remaining activity at 10 µM (CHK1): 97%; remaining activity at 10 µM (PLK1 (Okadaic acid)): 83%; remaining activity at 10 µM (MST2): 63%; remaining activity at 10 µM (ERK1): 87%; remaining activity at 10 µM (PKCa): 84%; remaining activity at 10 µM (CHK2): 38%; remaining activity at 10 µM (CSK): 74%; remaining activity at 10 µM (PLK1): 91%; remaining activity at 10 µM (p38b MAPK): 80%; % residual activity PHK (PHK): 33%; remaining activity at 10 µM (MAPKAP-K2): 84%; remaining activity at 10 µM (CAMKKb): 56%; remaining activity at 10 µM (MNK1): 27%; remaining activity at 10 µM (MARK3): 88%; remaining activity at 10 µM (PAK4): 88% |
| NC(=O)c1c[nH]c2c1ccc1c3ccccc3[nH]c12 [Example 5, 1,10-dihydropyrrolo[2,3-a]carbazole-3-carboxamide] | 75 | 46 | 70 | 96 | 103 | 75 | 93 | 69 | 61 | 42 | 87 | 57 | 78 | 80 | 104 | 97 | 115 | 106 | 53 | 80 | remaining activity at 10 µM (MSK1): 91%; remaining activity at 10 µM (PDK1): 67%; remaining activity at 10 µM (NEK6): 83%; remaining activity at 10 µM (CHK1): 113%; remaining activity at 10 µM (PLK1 (Okadaic acid)): 79%; remaining activity at 10 µM (MST2): 76%; remaining activity at 10 µM (ERK1): 71%; remaining activity at 10 µM (PKCa): 80%; remaining activity at 10 µM (CHK2): 44%; remaining activity at 10 µM (CSK): 65%; remaining activity at 10 µM (PLK1): 100%; remaining activity at 10 µM (p38b MAPK): 92%; % residual activity PHK (PHK): 43%; remaining activity at 10 µM (MAPKAP-K2): 92%; remaining activity at 10 µM (CAMKKb): 79%; remaining activity at 10 µM (MNK1): 19%; remaining activity at 10 µM (MARK3): 73%; remaining activity at 10 µM (PAK4): 16% |
